{
  "source": "patent US12435315B2",
  "about": "“Generating dorsal foregut, and anterior domain, endoderm cells” (The Cleveland Clinic Foundation, priority 2019, dated 2025)",
  "molecules": {"B1": {"name": "Activin A (protein, UniProt P08476 311-426, looked up)", "Inhibin beta A chain": "GLECDGKVNICCKKQFFVSFKDIGWNDWIIAPSGYHANYCEGECPSHIAGTSGSSLSFHSTVINHYRMRGHSPFANLKSCCVPTKLRPMSMLYYDDGQNIIKKDIQNMIVEECGCS", "modifications": "Inhibin beta A chain", "notes": "TGFβ pathway agonist used as a Nodal mimic"}, "B2": {"name": "FGF4 (protein, UniProt P08620 31-206, looked up)", "Fibroblast growth factor 4": "APTAPNGTLEAELERRWESLVALSLARLPVAAQPKEAAVQSGAGDYLLGIKRLRRLYCNVGIGFHLQALPDGRIGGAHADTRDSLLELSPVERGVVSIFGVASRFFVAMSSKGKLYGSPFFTDECTFKEILLPNNYNAYESYKYPGMFIALSKNGKTKKGNRVSPTMKVTHFLPRL", "notes": "FGF signaling growth factor (R&D 7460-F4)"}},
  "assay_type_in_all_cases": "cell-based, human",
  "key": {"[1]": {"test_system": "pluripotent stem cells", "assay": "DoE/ISPA of biologically active retinoids for HNF1β induction (DFE induction)", "settings": "retinoid DoE; 13-cis and all trans stated to contribute negatively", "from_the_text": "(§1) All DoE experimental designs were computer generated using D-optimal interaction designs in MODDE software (Sartorius Stedim Data Analytical Solutions, SSDAS). Perturbation matrixes were generated (96 independent experimental runs) on a Freedom Evol50 liquid handling robot (TECAN, CH). Each DoE differentiation experiment used a 3-day application of perturbation matrixes with daily media replacements. All cell culture, including manual preparatory expansion and seeding as well as any robotic manipulations were contained in a modular X-Vivo system (Biospherix, NY, USA) providing Process Analytical Technology (PAT) of the cell culture conditions (affording % N2, % O2, % CO2, and temperature control and monitoring at any point in the experimental process). End-point data collection was performed using an Open Array RT-QPCR method (QuantStudio, Life Technologies, 53 genes/sample/card). QuantStudio gene expression data were normalized within Expression Suite™ (Life Tech), standardized, and exported to MODDE. Mathematical modeling of the differentiation space was performed in MODDE using PLS maximizing the explained variance and subsequently gene-specific models were tuned by Q2 maximization. Fitted model optimized conditions for response maximization or minimization were extracted using the software predictive tools ‘optimizer’ and ‘dynamic profile’ analysis. Virtual experiments were performed in the known space covered by the experimental design, addressing pathway relative contributions to the desired parameters.\nSamples were loaded onto a custom design Quant Studio Card using an OpenArray AccuFill System (Life Technologies 4471021) and ran on a QuantStudio 12k Flex Real-Time PCR System (Life Technologies 4471090). The QuantStudio Open Array analysis provided expression information of 53 chosen genes per open array configuration. […] Initial designs included genes responding to all major sub-lineage fates downstream of pluripotency, while the later design focused more on endodermal lineages with an emphasis on pancreatic fates. […]"}, "[2]": {"test_system": "DFE-derived endocrine cultures", "assay": "Glucose stimulated insulin release assay (GSIS), C-peptide ELISA", "settings": "30 mM KCl, 30 minute incubation, versus 2 mM glucose basal", "protocol": "GSIS assays were performed by incubating cells in Krebs-Ringer buffer supplemented with 2 mM glucose for 30 minutes for determination of basal C-peptide levels. This was followed by changing reaction buffer to a Krebs Ringer buffer either supplemented with 20 mM glucose or 30 mM KCl for an additional 30 minute incubation. Buffer samples were collected and C-Peptide levels were quantified using ELISA (Mercodia 10-1141-01) according to manufacturer's protocol. Microfludic assays were performed as previously described (Adewola et al., 2010, Wang et al., 2012)."}, "[3]": {"test_system": "pluripotent cultures", "assay": "DoE/ISPA modeling of endodermal gene induction from pluripotency (3-day perturbation matrix, OpenArray RT-QPCR)", "settings": "ISPA prediction; for factor contribution (FC) for FOXA2 expression / factor contribution (FC) for HNF1β expression / factor contribution (FC) for MNX1 expression: pluripotent cultures", "protocol": "Pluripotent cultures were adapted to Essential 8 media (Gibco A15169-01) and grown on vitronectin (Gibco A14700) coated plates (Corning Inc. 3598). Differentiation experiments were seeded at 75,000 cells per cm^2 and maintained in E8 medium for 48 hours until cultures were approximately 90% confluent before initiating differentiation. All growth factors and small molecules were reconstituted according to supplier's recommendations and aliquots were stored at −80° C. for up to a year. Growth medium was changed daily and with the exception of the DE protocol the basal medium used in all differentiation experiments was CDM2 (Loh et al., 2014). The APS^Opt was composed of 250 nM LDN3189 (Sellekchem S2618), 50 ng/ml Activin A (Peprotech 120-14), 20 ng/ml bFGF (Gibco 13256029), 100 nM Sant1 (Sellekchem S7092). The HNF1β^Opt was supplemented with 250 nM LDN3189, 500 nM A8301 (Biogems 4463325), 12.6 ng/ml Wnt3a (R&D 5036WN/CF), 25 ng/ml bFGF, 250 nM PD0325 (Selleckchme S1036), 40 ng/ml SHH (Peprotech 100-45) and 2 uM retinoic acid (Sigma Aldrich R2625). DE was generated using conditions previously described (Rezania et al., 2014, D'Amour et al., 2005). The PDX1^Opt was composed of 500 nM A8301, 250 nM LDN3189, 100 nM Sant1, 250 nM PD0325, 2 uM retinoic acid and 1% B27 supplement (Gibco 12587) and with the exception of where it is stated differently in the text was used for 3 sequential days on differentiating cells. Endocrine push medium was supplemented with 100 nM gamma-secretase inhibitor XX (EMD Millipore 565789) and 500 nM A8301. Stomach organoids were generated using a modified protocol (McCracken et al., 2014). Briefly HNF1β^Opt cultures were incubated for three days with a stage 2 medium supplemented with 500 ng/ml Wnt3a, 500 ng/ml FGF4 (R&D 7460-F4), 250 nM LDN3189 and 2 uM retinoic acid (RA first day only). Cultures were passaged 1:6 with seeding occurring in a 1:4 Matrigel (Fisher Scientific 354230)/CDM2 mixture and incubated for 30 minutes at 37° C. before a three day application of stage 3 medium composed of 2 uM retinoic acid, 250 nM LDN3189 and 100 ng/ml EGF (R&D 236-EG). Cultures were then supplemented with a stage 4 medium supplemented with 100 ng/ml EGF for 23 days before organoids were recovered and fixed for sectioning.\nas §1\nRNA extractions for modeling analysis were performed using a MagMax-96 Total RNA Isolation Kit (Life Technologies AM1830) and performed according to manufacturer's protocol. […]"}, "[4]": {"test_system": "DFE culture", "assay": "Sequential DoE/ISPA modelling on DFE culture, maximizing SOX2, OSR1 or PDX1 expression", "settings": "ISPA; for factor contribution (FC) for PDX1 (pancreatic) activation: PDX1^Opt", "quoted_text": "Since we observed that the DFE cultures were competent for both stomach and pancreas induction we next evaluated this bi-potential nature through a sequential DoE modelling experiment performed on the DFE culture.\nResults from ISPA maximization of the expression of SOX2, OSR1 or PDX1 were compared (FIGS. 4A & B).\nPluripotent cultures were adapted to Essential 8 media (Gibco A15169-01) and grown on vitronectin (Gibco A14700) coated plates (Corning Inc. 3598). Differentiation experiments were seeded at 75,000 cells per cm^2 and maintained in E8 medium for 48 hours until cultures were approximately 90% confluent before initiating differentiation. All growth factors and small molecules were reconstituted according to supplier's recommendations and aliquots were stored at −80° C. for up to a year. Growth medium was changed daily and with the exception of the DE protocol the basal medium used in all differentiation experiments was CDM2 (Loh et al., 2014). The APS^Opt was composed of 250 nM LDN3189 (Sellekchem S2618), 50 ng/ml Activin A (Peprotech 120-14), 20 ng/ml bFGF (Gibco 13256029), 100 nM Sant1 (Sellekchem S7092). The HNF1β^Opt was supplemented with 250 nM LDN3189, 500 nM A8301 (Biogems 4463325), 12.6 ng/ml Wnt3a (R&D 5036WN/CF), 25 ng/ml bFGF, 250 nM PD0325 (Selleckchme S1036), 40 ng/ml SHH (Peprotech 100-45) and 2 uM retinoic acid (Sigma Aldrich R2625). […] The PDX1^Opt was composed of 500 nM A8301, 250 nM LDN3189, 100 nM Sant1, 250 nM PD0325, 2 uM retinoic acid and 1% B27 supplement (Gibco 12587) and with the exception of where it is stated differently in the text was used for 3 sequential days on differentiating cells."}, "[5]": {"test_system": "pluripotent stem cells", "assay": "Immunostaining and high content imaging of DFE markers (conversion efficiency)", "settings": "immunostaining of DFE markers, compared with HNF1β^Opt / RA", "protocol": "Histological characterization occurred by treating cell cultures with 4% paraformaldehyde (EMD 30525-89-4) solution at ambient temperature for 15 minutes. Samples were then blocked and permeabilized using 0.1M Tris/HCl (Promega H5123) pH 7.5 supplemented with 0.5% blocking reagent (Perkin Elmer FP1012) and 0.1% TrintonX-100 (Fisher Scientific BP151) for 1 hour. All antibody solutions were diluted in 0.1M Tris/HCl (Promega H5123) pH 7.5 and primary antibodies were incubated over-night while secondary antibodies were incubated for an hour. All incubations occurred at ambient temperature. Cultures were treated with a 1:2 dilution of Vectashield mounting medium (Vector Laboratories H-1200).\nTo further validate the induction conditions for DFE markers, immunostaining was performed, followed by high content imaging to assess conversion efficiency."}, "[6]": {"test_system": "pluripotent cultures", "assay": "HD-DoE gastrulation modeling, normalized effector factor contributions for endodermal genes", "settings": "ISPA", "from_the_text": "as §1, with “Virtual experiments were performed in the known space covered by the experimental design, addressing pathway relative contributions to the desired parameters.” left out\nTo better understand how the in vitro produced endodermal populations being studied are patterned we next performed a follow-up DoE-based gastrulation modeling experiment (FIG. 16A). ISPA optimizing for all the individual endoderm genes measured were then subjected to a cluster analysis using Seurat R package (FIG. 16B). […]\nHD-DoE designs incorporating Activin A (AA), BMP4, NODAL, retinoic acid and respective inhibitors were used on pluripotent cultures and key endodermal genes were monitored (FIG. 16). Resulting data was imported into analysis software and computer models predicting optimal culture conditions for activating all genes monitored were clustered (FIG. 19B). […]"}},
  "data": [
    {"molecule": "CC1=C(/C=C/C(C)=C/C=C/C(C)=C\\C(=O)O)C(C)(C)CCC1", "note": "[13-cis retinoic acid]", "values": [
      {"measurement": "factor contribution (FC) to HNF1β induction", "setting": "[1]", "result": 24.1609}
    ]},
    {"molecule": "[Cl-].[K+]", "note": "[KCl]", "values": [
      {"measurement": "increase in detectable C-peptide levels", "setting": "[2]", "result": 4, "unit": "fold"}
    ]},
    {"molecule": "CC1=C(/C=C/C(C)=C/C=C/C(C)=C/C(=O)O)C(C)(C)CCC1=O", "note": "[4-oxo-retinoic acid]", "values": [
      {"measurement": "factor contribution (FC) to HNF1β induction", "setting": "[1]", "result": 13.21}
    ]},
    {"molecule": "c1ccc2c(-c3cnn4cc(-c5ccc(N6CCNCC6)cc5)cnc34)ccnc2c1", "note": "[BMPi, LDN193189]", "values": [
      {"measurement": "factor contribution (FC) for FOXA2 expression", "setting": "[3]", "result": 25.3},
      {"measurement": "factor contribution (FC) for HNF1β expression", "setting": "[3]", "result": 31.7},
      {"measurement": "factor contribution (FC) for MNX1 expression", "setting": "[3]", "result": 30.5}
    ]},
    {"molecule": "O=C(NOC[C@H](O)CO)c1ccc(F)c(F)c1Nc1ccc(I)cc1F", "note": "[PD0325901]", "values": [
      {"measurement": "factor contribution (FC) for PDX1 (pancreatic) activation", "setting": "[4]", "result": 29.62}
    ]},
    {"molecule": "SHH", "values": [
      {"measurement": "factor contribution (FC) for SOX2 expression", "setting": "[4]", "result": 29.58}
    ]},
    {"molecule": "CC1(C)CCC(C)(C)c2cc(C#Cc3ccc(C(=O)O)cc3)ccc21", "note": "[EC23]", "values": [
      {"measurement": "effectiveness of DFE induction by alternative retinoic acid pathway agonists", "setting": "[5]", "result": "operates equivalently to RA"}
    ]},
    {"molecule": "CC1=C(/C=C/C(C)=C/C=C/C(C)=C/C(=O)O)C(C)(C)CCC1", "note": "[RA, retinoic acid]", "values": [
      {"measurement": "factor contribution (FC) to HNF1β induction", "setting": "[1]", "result": 2.773},
      {"measurement": "factor contribution (FC) for OSR1 (gastric) activation", "setting": "[4]", "result": 30.68},
      {"measurement": "factor contribution (FC) for SOX2 expression", "setting": "[4]", "result": "−28.59"},
      {"measurement": "factor contribution (FC) for PDX1 (pancreatic) activation", "setting": "[4]", "result": 31.38},
      {"measurement": "factor contribution (FC) for FOXA2 expression", "setting": "[3]", "result": 24.8},
      {"measurement": "factor contribution (FC) for HNF1β expression", "setting": "[3]", "result": 30.1},
      {"measurement": "factor contribution (FC) for MNX1 expression", "setting": "[3]", "result": 22.7}
    ]},
    {"molecule": "Cc1cccc(-c2nn(C(=S)Nc3ccccc3)cc2-c2ccnc3ccccc23)n1", "note": "[Alk5i, A8301]", "values": [
      {"measurement": "factor contribution (FC) for FOXA2 expression", "setting": "[3]", "result": 8.88},
      {"measurement": "factor contribution (FC) for HNF1β expression", "setting": "[3]", "result": 7.59},
      {"measurement": "factor contribution (FC) for MNX1 expression", "setting": "[3]", "result": 18.98}
    ]},
    {"molecule": "B1", "values": [
      {"measurement": "normalized factor contribution for OSR1 activation", "setting": "[6]", "result": "−1.0"},
      {"measurement": "normalized factor contribution for PAX9 activation", "setting": "[6]", "result": "−0.85"},
      {"measurement": "normalized factor contribution for TBX1 activation", "setting": "[6]", "result": "−0.59"},
      {"measurement": "contribution to activating retinoic acid/BMP inhibition-dependent endoderm genes", "setting": "[3]; FOXA2, HNF1β, MNX1 etc.", "result": "no contribution"},
      {"measurement": "factor contribution (FC) to anterior primitive streak (APS) gene induction", "setting": "[3]; maximal MESP1, EOMES, BRACHYURY/T, minimal EVX1", "result": 18.85}
    ]},
    {"molecule": "B2", "values": [
      {"measurement": "factor contribution (FC) for OSR1 (gastric) activation", "setting": "[4]", "result": 13.45}
    ]}
  ]
}
